Data published in ChEMBL document CHEMBL1124225, “2,3-Diarylindenes and 2,3-diarylindenones: synthesis, molecular structure, photochemistry, estrogen receptor binding affinity, and comparisons with related triarylethylenes” (J Med Chem, 1988).

The compounds below were run against Estrogen receptor (Rattus norvegicus) (UniProt P06211+Q62986) (assay: Binding affinity for rat uterine estrogen receptor relative to estradiol).
Assay type: protein assay

SMILES | RBA
Oc1ccc2c(c1)CC(c1ccccc1)=C2c1ccccc1 | 8.9%
O=C1C(c2ccccc2)=C(c2ccccc2)c2ccc(O)cc21 | 59%
Oc1ccc2c(c1)Cc1c-2c2ccccc2c2ccccc12 | 0.01%

Second part, the compound after the results:

RBA | SMILES
15% | Oc1ccc(C2=C(c3ccc(O)cc3)c3ccc(O)cc3C2)cc1
140% | Oc1ccc(C2=C(c3ccc(O)cc3)c3ccc(O)cc3CC2)cc1
23% | O=C1C(c2ccc(O)cc2)=C(c2ccc(O)cc2)c2ccc(O)cc21
